# Results: patent EP4635500A1, “THERAPEUTIC AGENT FOR BACTERIAL INFECTION” (Sumitomo Pharma Co., Ltd., priority 2022, dated 2024)
# Read-outs that look alike come from different tables or passages of the source.
# How the values were obtained:
# 53 CRE and CPE strains = assay: MICrange, MIC50, MIC80, MIC90 for 53 bacterial isolates (Example 5, Table 5); format: cell-based
# P. aeruginosa = assay: MIC, broth microdilution, CDC/FDA Antibiotic Resistance Isolate Bank (Example 7, Tables 10, 15); format: cell-based; conditions: for MIC: read-out: MIC
# [1] = Pseudomonas aeruginosa, 96 strains of P. aeruginosa
smiles,measurement,setting,value
"C[C@@H](O)[C@H]1C(=O)N2C(C(=O)O)=C(S[C@@H]3CN[C@H](C(=O)N(C)C)C3)[C@H](C)[C@H]12 [MEPM, meropenem]",MIC50,"53 CRE and CPE strains; 53 CRE and CPE strains, read-out: MIC50",4 µg/mL
same,MIC80,"53 CRE and CPE strains; 53 CRE and CPE strains, read-out: MIC80",16 µg/mL
same,MIC90,"53 CRE and CPE strains; 53 CRE and CPE strains, read-out: MIC90",64 µg/mL
same,MIC50,53 CRE and CPE strains; 53 bacterial isolates,4 µg/mL
same,MIC80,53 CRE and CPE strains; 53 bacterial isolates,16 µg/mL
same,MIC90,53 CRE and CPE strains; 53 bacterial isolates,64 µg/mL
same,MICrange,53 CRE and CPE strains; 53 bacterial isolates,0.06 to 256 µg/mL
same,MIC against 96 strains of P. aeruginosa MIC50,"P. aeruginosa; 96 strains of P. aeruginosa, β-lactamase inhibitor µg/mL in parentheses",16 µg(mL)
same,MIC,"P. aeruginosa; Pseudomonas aeruginosa, KUB No. 57 (continued 90 in the 40th table r2), AR Bank #44 (continued 5), no carbapenemase gene",64 µg/mL
same,MIC,"P. aeruginosa; Pseudomonas aeruginosa, KUB No. 5587, AR Bank #90, KPC-5",32 µg/mL
same,MIC,"P. aeruginosa; Pseudomonas aeruginosa, KUB No. 5591, AR Bank #94, no carbapenemase gene",16 µg/mL
same,MIC,"P. aeruginosa; Pseudomonas aeruginosa, KUB No. 5592, AR Bank #95, no carbapenemase gene",8 µg/mL
same,MIC,"P. aeruginosa; Pseudomonas aeruginosa, KUB No. 5607, AR Bank #110, VIM-2",64 µg/mL
same,MIC,"P. aeruginosa; Pseudomonas aeruginosa, KUB No. 5608, AR Bank #111, VIM-2",32 µg/mL
same,MIC,"P. aeruginosa; Pseudomonas aeruginosa, KUB No. 5662, AR Bank #229, no carbapenemase gene",32 µg/mL
same,MIC,"P. aeruginosa; Pseudomonas aeruginosa, KUB No. 5663, AR Bank #230, VIM-2",64 µg/mL
same,MIC,"P. aeruginosa; Pseudomonas aeruginosa, KUB No. 5666, AR Bank #233, no carbapenemase gene",16 µg/mL
same,MIC,"P. aeruginosa; Pseudomonas aeruginosa, KUB No. 5667, AR Bank #234, no carbapenemase gene",2 µg/mL
same,MIC,"P. aeruginosa; Pseudomonas aeruginosa, KUB No. 5668, AR Bank #235, no carbapenemase gene",16 µg/mL
same,MIC,"P. aeruginosa; Pseudomonas aeruginosa, KUB No. 5669, AR Bank #236, no carbapenemase gene",2 µg/mL
same,MIC,"P. aeruginosa; Pseudomonas aeruginosa, KUB No. 5670, AR Bank #237, no carbapenemase gene",2 µg/mL
same,MIC,"P. aeruginosa; Pseudomonas aeruginosa, KUB No. 5671, AR Bank #238, no carbapenemase gene",≤ 0.25 µg/mL
same,MIC,"P. aeruginosa; Pseudomonas aeruginosa, KUB No. 5672, AR Bank #239, GES-1, VIM-11",64 µg/mL
same,MIC,"P. aeruginosa; Pseudomonas aeruginosa, KUB No. 5676, AR Bank #243, VIM-2",8 µg/mL
same,MIC,"P. aeruginosa; Pseudomonas aeruginosa, KUB No. 5677, AR Bank #244, no carbapenemase gene",16 µg/mL
same,MIC,"P. aeruginosa; Pseudomonas aeruginosa, KUB No. 5678, AR Bank #245, VIM-2",8 µg/mL
same,MIC,"P. aeruginosa; Pseudomonas aeruginosa, KUB No. 5684, AR Bank #251, no carbapenemase gene",1 µg/mL
same,MIC,"P. aeruginosa; Pseudomonas aeruginosa, KUB No. 5685, AR Bank #252, no carbapenemase gene",2 µg/mL
same,MIC,"P. aeruginosa; Pseudomonas aeruginosa, KUB No. 5686, AR Bank #253, no carbapenemase gene",0.5 µg/mL
same,MIC,"P. aeruginosa; Pseudomonas aeruginosa, KUB No. 5687, AR Bank #254, VIM-2",64 µg/mL
same,MIC,"P. aeruginosa; Pseudomonas aeruginosa, KUB No. 5689, AR Bank #256, no carbapenemase gene",2 µg/mL
same,MIC,"P. aeruginosa; Pseudomonas aeruginosa, KUB No. 5691, AR Bank #258, no carbapenemase gene",2 µg/mL
same,MIC,"P. aeruginosa; Pseudomonas aeruginosa, KUB No. 5692, AR Bank #259, no carbapenemase gene",0.5 µg/mL
same,MIC,"P. aeruginosa; Pseudomonas aeruginosa, KUB No. 5694, AR Bank #261, no carbapenemase gene",0.5 µg/mL
same,MIC,"P. aeruginosa; Pseudomonas aeruginosa, KUB No. 5695, AR Bank #262, no carbapenemase gene",0.5 µg/mL
same,MIC,"P. aeruginosa; Pseudomonas aeruginosa, KUB No. 5696, AR Bank #263, no carbapenemase gene",≤ 0.25 µg/mL
same,MIC,"P. aeruginosa; Pseudomonas aeruginosa, KUB No. 5697, AR Bank #264, no carbapenemase gene",2 µg/mL
same,MIC,"P. aeruginosa; Pseudomonas aeruginosa, KUB No. 5698, AR Bank #265, no carbapenemase gene",8 µg/mL
same,MIC,"P. aeruginosa; Pseudomonas aeruginosa, KUB No. 5699, AR Bank #266, no carbapenemase gene",8 µg/mL
same,MIC,"P. aeruginosa; Pseudomonas aeruginosa, KUB No. 5700, AR Bank #267, no carbapenemase gene",2 µg/mL
same,MIC,"P. aeruginosa; Pseudomonas aeruginosa, KUB No. 5701, AR Bank #268, no carbapenemase gene",16 µg/mL
same,MIC,"P. aeruginosa; Pseudomonas aeruginosa, KUB No. 5702, AR Bank #269, no carbapenemase gene",8 µg/mL
same,MIC,"P. aeruginosa; Pseudomonas aeruginosa, KUB No. 5703, AR Bank #270, no carbapenemase gene",2 µg/mL
same,MIC,"P. aeruginosa; Pseudomonas aeruginosa, KUB No. 5704, AR Bank #271, no carbapenemase gene",8 µg/mL
same,MIC,"P. aeruginosa; Pseudomonas aeruginosa, KUB No. 5705, AR Bank #272, no carbapenemase gene",2 µg/mL
same,MIC,"P. aeruginosa; Pseudomonas aeruginosa, KUB No. 5747, AR Bank #351, no carbapenemase gene",16 µg/mL
same,MIC,"P. aeruginosa; Pseudomonas aeruginosa, KUB No. 5749, AR Bank #353, GES-1",16 µg/mL
same,MIC,"P. aeruginosa; Pseudomonas aeruginosa, KUB No. 5751, AR Bank #355, no carbapenemase gene",8 µg/mL
same,MIC,"P. aeruginosa; Pseudomonas aeruginosa, KUB No. 5752, AR Bank #356, KPC-2",32 µg/mL
same,MIC,"P. aeruginosa; Pseudomonas aeruginosa, KUB No. 5754, AR Bank #358, no carbapenemase gene",8 µg/mL
same,MIC,"P. aeruginosa; Pseudomonas aeruginosa, KUB No. 5755, AR Bank #359, no carbapenemase gene",8 µg/mL
same,MIC,"P. aeruginosa; Pseudomonas aeruginosa, KUB No. 5756, AR Bank #360, no carbapenemase gene",16 µg/mL
same,MIC,"P. aeruginosa; Pseudomonas aeruginosa, KUB No. 5785, AR Bank #439, IMP-18",64 µg/mL
same,MIC,"P. aeruginosa; Pseudomonas aeruginosa, KUB No. 5786, AR Bank #440, no carbapenemase gene",8 µg/mL
same,MIC,"P. aeruginosa; Pseudomonas aeruginosa, KUB No. 5787, AR Bank #441, KPC-2",32 µg/mL
same,MIC,"P. aeruginosa; Pseudomonas aeruginosa, KUB No. 5788, AR Bank #443, no carbapenemase gene",16 µg/mL
same,MIC,"P. aeruginosa; Pseudomonas aeruginosa, KUB No. 5791, AR Bank #447, no carbapenemase gene",2 µg/mL
same,MIC,"P. aeruginosa; Pseudomonas aeruginosa, KUB No. 5793, AR Bank #449, no carbapenemase gene",16 µg/mL
same,MIC,"P. aeruginosa; Pseudomonas aeruginosa, KUB No. 5798, AR Bank #455, no carbapenemase gene",16 µg/mL
same,MIC,"P. aeruginosa; Pseudomonas aeruginosa, KUB No. 5799, AR Bank #456, no carbapenemase gene",64 µg/mL
same,MIC,"P. aeruginosa; Pseudomonas aeruginosa, KUB No. 5801, AR Bank #458, no carbapenemase gene",1 µg/mL
same,MIC,"P. aeruginosa; Pseudomonas aeruginosa, KUB No. 5802, AR Bank #459, no carbapenemase gene",16 µg/mL
same,MIC,"P. aeruginosa; Pseudomonas aeruginosa, KUB No. 5804, AR Bank #862, no carbapenemase gene",8 µg/mL
same,MIC,"P. aeruginosa; Pseudomonas aeruginosa, KUB No. 5806, AR Bank #864, no carbapenemase gene",64 µg/mL
same,MIC,"P. aeruginosa; Pseudomonas aeruginosa, KUB No. 5813, AR Bank #508, no carbapenemase gene",16 µg/mL
same,MIC,"P. aeruginosa; Pseudomonas aeruginosa, KUB No. 5815, AR Bank #510, no carbapenemase gene",0.5 µg/mL
same,MIC,"P. aeruginosa; Pseudomonas aeruginosa, KUB No. 5817, AR Bank #512, no carbapenemase gene",16 µg/mL
same,MIC,"P. aeruginosa; Pseudomonas aeruginosa, KUB No. 5818, AR Bank #513, no carbapenemase gene",32 µg/mL
same,MIC,"P. aeruginosa; Pseudomonas aeruginosa, KUB No. 5820, AR Bank #515, no carbapenemase gene",32 µg/mL
same,MIC,"P. aeruginosa; Pseudomonas aeruginosa, KUB No. 5821, AR Bank #516, KPC-2",64 µg/mL
same,MIC,"P. aeruginosa; Pseudomonas aeruginosa, KUB No. 5831, AR Bank #526, no carbapenemase gene",8 µg/mL
same,MIC,"P. aeruginosa; Pseudomonas aeruginosa, KUB No. 5832, AR Bank #527, no carbapenemase gene",16 µg/mL
same,MIC,"P. aeruginosa; Pseudomonas aeruginosa, KUB No. 5833, AR Bank #528, no carbapenemase gene",8 µg/mL
same,MIC,"P. aeruginosa; Pseudomonas aeruginosa, KUB No. 5834, AR Bank #529, no carbapenemase gene",8 µg/mL
same,MIC50,P. aeruginosa; [1],16 µg/mL
same,MIC80,P. aeruginosa; [1],64 µg/mL
